Measured values as given in patent US10953027B2, “Active agents and methods of their use for the treatment of metabolic disorders and nonalcoholic fatty liver disease” (Flagship Pioneering Innovations V, Inc., priority 2018, dated 2021).

Experiments:
naïve CD4+ T cells = assay: Human regulatory T cell differentiation assay; assay type: cell-based; details: 6 days
Method: Peripheral blood mononuclear cells (PBMCs) from whole blood donated by health volunteers were separated by Ficoll-Paque gradient centrifugation and naïve CD4^+ T cells were subsequently isolated using magnet beads (EasySep™ Human Naïve CD4^+ T Cell Isolation Kit, Cambridge, Mass.). For regulatory T cell (Treg) differentiation assay, naïve CD4^+ T cells were cultured (1-10×10^4 cells) in CTS OpTmizer medium for 6 days and stimulated with 5 ng/ml TGF-β, 100 U/ml IL-2, and ImmunoCult™ Human […] T Cell Activator; Stemcell #10990) with/without our Compounds. Cell viability was determined using a viability dye (eBioscience Fixable Viability Dye eFluor 780: ThermoFisher 65-0865-14) at 1:500 dilution. The cells were gated for Treg, defined as Live, CD11c^−, CD14^−, CD19^−, CD8^−, CD4^+, CD3^+, CD25^+, FOXP3^+. Percent (%) Tregs were calculated as percentage of CD4^+, CD25^+, FOXP3^+ cells over total CD4^+ T cells. Statistical analysis was performed with GraphPad Prism Software Using One-Way ANOVA.

C57BL/6 DIO mice = assay: DIO animal model of NAFLD/NASH in young mice (Example 16); assay type: in vivo; design: OGTT: unit not given beside the values; details: for % Weight change: 12 weeks; for OGTT: Day 82, 2 g/kg glucose PO; for % Difference compared to ctrl: weight change vs HFD ctrl
Source text: Species (number, sex, age/weight): C57BL/6 DIO mice (120+10 spares, male, ˜18 weeks of age) from Jackson Laboratories, Stock #380050. Note: 18 week old DIO mice sent sent with a minimum body weight of 39 grams. Spare animals may be used to replace study animals, as required, euthanized after completion of dose administration or transferred to Testing Facility Docket 07-12.
Cage Side Observations (Animal Health Checks): Cage side animal's health checks will be performed at least once daily to check for general health, mortality and moribundity. Clinical Observations: Clinical observations will be performed per exception. Body Weights: Body weights for all animals will be recorded prior to Day 1 and at least twice weekly thereafter, including prior to necropsy ([…]).
Dose Administration: Dosing for Groups 3-8 will be provided ad libitum in the diet. Dosing for Groups 9 (Saline) and 10 (Semaglutide at 123.4 μg/kg) in a 5 mL/kg volume, will begin on Day 1, and be performed 3 times weekly for 12 weeks by SC administration. Residual Test Article: All residual high fat diets will be frozen at nominally −20° C., and at the end of the study, several pellets of the diets for groups 2-9 (in 50-ml conical tubes) will be shipped to Sponsor, and the rest will be discarded. Residual control diets (group 1) will be stored ambient, and at the end of the study, several pellets in a 50 mL conical tube will be shipped to Sponsor and the rest is discarded. Residual test material for Group 10 will be stored at nominally −70° C., and at the end of the study, an aliquot of test material will be shipped to Sponsor, and the rest will be discarded.
(§1) Oral Glucose Tolerance Test (oGTT) On Day 82 (+/−2 days) an oGTT will be performed. Following an approximate 4 hour fast, 2 g/kg glucose (50% Dextrose diluted in sterile water for injection to a concentration of 0.4 g/mL) will be administered at 5 mL/kg via oral gavage (PO). Blood will be collected pre-glucose challenge (t=0) and at t=15, 30, 60, 90, and 120 minutes following the glucose challenge. Whole blood glucose levels will be evaluated at all time points using a handheld glucometer and will be reported in the Data Submission. This will be scheduled on a Tuesday or Thursday to avoid Group 9/10 dosing days.
as §1, with “Submission.” for “Submission. This will be scheduled on a Tuesday or Thursday to avoid Group 9/10 dosing days.”

Mouse 3T3-L1 cells = assay: Mouse adipocyte lipolysis assay; assay type: cell-based; details: Mus musculus, 3T3-L1, 24 hours, read-out: Lipolysis Free Fatty Acids % DMSO
Method: Once the cells became confluent, they were seeded into a tissue culture treated 96 well plate. […] After 14 days of differentiation, cells were treated with compounds of interest. After 24 hours post-treatment, the cell viability was assessed using CellTiter-Glo Luminescent Cell Viability Assay from Promega, and lipolysis was determined using Lipolysis Assay Kit from ZenBio.

Mouse myocyte = Mouse myocyte lipolysis assay; assay type: cell-based; details: Mus musculus, read-out: Free glycerol % DMSO
Method: Cells were obtained from ATCC and cultured in Dulbecco's Modified Eagle's medium (DMEM) containing 20% fetal bovine serum and 1% penicillin/streptomycin at 37° C. in an incubator with 5% CO2. Once the cells became confluent, they were seeded into a tissue culture treated 96 well plate. The next day, the medium containing DMEM with 2% equine serum was used to start differentiation. Once cells were fully differentiated, they were treated with indicated compounds.

[1] = Assay 2. Stability in Simulated Intestinal Fluid (SIF); assay type: in vitro ADME; details: 1 μM, 37° C., SIF pH 6.7 with pancreatin
Procedure, shortened: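 Degradation rate measured by LC/MS after acetonitrile quench of timed aliquots, starting at T0. Test compound 1 μM in simulated intestinal fluid (pH 6.7 phosphate buffer, FaSSIF powder, pancreatin), shaken at 37 °C.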

[2] = Assay 1. Stability in Simulated Gastric Fluid (SGF); assay type: in vitro ADME; details: 1 μM, 37° C., SGF pH 1.6 with pepsin
Procedure, shortened: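 Simulated gastric fluid, prepared fresh as NaCl buffer at pH 1.6 with 0.1 mg/mL pepsin and FaSSIF powder, received test compound to 1 μM final and was held at 37 °C. LC/MS of acetonitrile-quenched samples, taken immediately and then periodically, gave degradation rates.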

Male DIO mice = assay: In vivo evaluation for glucose disposal and lipidemia in DIO mice (Example 11); details: for Fasting blood glucose levels (time 0 from OGTT): 28 days, 16 hour fast; for glucose AUC (0-120 min): OGTT day 28, glucose 2.0 g/kg PO
Method: The DIO mice were prepared by feeding male C57BL/6 mice a high fat diet (HFD, Research Diets D12492) from 6-14 weeks of age. DIO mice were housed individually and maintained on the HFD through the duration of study. A twelve-hour light cycle was maintained with room temperature maintained at 22-25° C. All of the mice were acclimated to the facility for 5 days prior to starting the study.
Following 5 days of facility acclimation, DIO mice were randomized into 8 groups of 10 based on body weight and blood glucose for assignment to treatment, as shown in Table 9:
All treatments were administered admixed in HFD (Research Diets, New Brunswick N.J.) and were provided ad libitum for 30 days. Drinking water for group 7 was supplemented with 1, 3 Butanediol at 3% concentration.
Body weight was recorded at baseline and twice weekly thereafter. Feed and water intakes were recorded each Monday, Wednesday, and Friday.
Blood samples (<3 μL) were obtained one hour post dose by tail clip at baseline and weekly thereafter for measurement of fed blood glucose by StatStrip. Additional anti-coagulated blood samples (100 μl, EDTA di-potassium salt) were obtained by tail clip one hour post-dose at baseline, day 14 and day 30. Anti-coagulated samples were quick frozen and stored on dry ice.
Animals were subjected to a 16 hour fast for performance of an oral glucose tolerance test (OGTT) on day 28. Blood samples were obtained via tail clip just prior to (8 am) and 15, 30, 60, 90, and 120 minutes post-glucose load (2.0 g/kg, PO) for assay of whole blood glucose (StatStrip). Feed was returned following last sample.
Animals were terminated on day 30-31 using CO2 inhalation and induction of pneumothorax. Terminal blood samples were obtained by cardiac puncture. Whole blood was processed to serum and analyzed for serum cholesterol, triglycerides, high density lipoprotein (HDL), low density lipoprotein (LDL) and non-esterified fatty acids (NEFA) using AU480 clinical analyzer.
Organ weights (liver, spleen, subcutaneous fat, inguinal fat, abdominal fat, and epididymal fat) were recorded. Sections of each fat were frozen or fixed in 4% paraformaldehyde/PBS, pH 6.9; Fat samples were placed on dry ice. Fixed liver samples (4% paraformaldehyde) were sent to Premier Laboratories for H&E staining and scoring for steatosis, inflammation and fibrosis. Spleen samples were prepared in ice cold 5% bovine serum albumin (BSA) in PBS or 4% paraformaldehyde. Sections of brain, heart, lung, and small and large intestine were fixed in 10% formalin.
All data are represented as group mean±SEM. Data were analyzed using JMP (SAS software). All normalizations were calculated using terminal body weight.
Baseline differences among groups were identified using Tukey-Kramer Hsd<0.05. Treatment effects compared to control were determined using Oneway ANOVA (*, p<0.05) followed by Dunnett's test where appropriate.

CCCC(=O)O [Butyric Acid]
Cell viability % DMSO (naïve CD4+ T cells; 3 mM): − (<90%: −) | activity at 3000 µM (naïve CD4+ T cells; Homo sapiens, CD4+ T, 144 h, 3 mM, read-out: Treg induction % DMSO): < 90%

CCCC(=O)O[C@H]1OC[C@H](OC(=O)CCC)[C@H](OC(=O)CCC)[C@H]1OC(=O)CCC [Compound 184, (2R,3R,4S,5S)-3,4,5-tris(butanoyloxy)oxan-2-yl Butanoate]
% Weight change (C57BL/6 DIO mice; ad libitum in HFD): 11% | OGTT (C57BL/6 DIO mice; ad libitum in HFD, ctrl HFD): 27257 | % HbA1c (C57BL/6 DIO mice; ad libitum in HFD, ctrl HFD): 5.96% | % Difference compared to ctrl (C57BL/6 DIO mice; ad libitum in HFD): −12%

CC[C@H]1[C@@H](O)[C@@H]2[C@H](CC[C@]3(C)[C@@H]([C@H](C)CCC(=O)O)CC[C@@H]23)[C@@]2(C)CC[C@@H](O)C[C@@H]12 [Obeticholic acid, obeticholic acid]
activity at 100 µM (Mouse 3T3-L1 cells; 100 μM): 90 to 100% | activity at 100 µM (Mouse myocyte; 100 μM): 90 to 100% | Cell viability % DMSO (naïve CD4+ T cells; 100 uM): = (90%≥ ≤110%: =) | activity at 100 µM (naïve CD4+ T cells; Homo sapiens, CD4+ T, 144 h, 100 uM, read-out: Treg induction % DMSO): 110 to 130%

CCCC(=O)Oc1cc(OC(=O)CCC)c2c(=O)c(OC(=O)CCC)c(-c3ccc(OC(=O)CCC)c(OC(=O)CCC)c3)oc2c1 [Compound 15, [2-butanoyloxy-4-[3,5,7-tri(butanoyloxy)-4-oxo-chromen-2-yl]phenyl] butanoate]
% Weight change (C57BL/6 DIO mice; ad libitum in HFD): 23% | OGTT (C57BL/6 DIO mice; ad libitum in HFD, ctrl HFD): 32722 | % HbA1c (C57BL/6 DIO mice; ad libitum in HFD, ctrl HFD): 6.50% | % Difference compared to ctrl (C57BL/6 DIO mice; ad libitum in HFD): 0% | Assay 2 (SIF) (% @ Remaining 4 hours) [1]: B (B: 25-75% of the tested compound remaining) | Assay 1 (SGF) (% Remaining @ 1 hours) [2]: C (C: >75% of the tested compound remaining)

CCCC(=O)OCC[C@@H](C)OC(=O)Oc1ccc(/C=C/c2cc(OC(=O)O[C@H](C)CCOC(=O)CCC)cc(OC(=O)O[C@H](C)CCOC(=O)CCC)c2)cc1 [Compound 78, (3R,3′R)-((((5-((E)-4-(((((R)-4-(butyryloxy)butan-2-yl)oxy)carbonyl)oxy)styryl)-1,3-phenylene)bis(oxy))bis(carbonyl))bis(oxy))bis(butane-3,1-diyl) dibutyrate]
% Weight change (C57BL/6 DIO mice; ad libitum in HFD): 21% | OGTT (C57BL/6 DIO mice; ad libitum in HFD, ctrl HFD): 29944 | % HbA1c (C57BL/6 DIO mice; ad libitum in HFD, ctrl HFD): 6.14% | % Difference compared to ctrl (C57BL/6 DIO mice; ad libitum in HFD): −2% | Assay 2 (SIF) (% @ Remaining 4 hours) [1]: A (A: <25% of the tested compound remaining) | Assay 1 (SGF) (% Remaining @ 1 hours) [2]: C (C: >75% of the tested compound remaining)

O=C(CCCc1ccccc1)Oc1cc(OC(=O)CCCc2ccccc2)c2c(c1)O[C@H](c1cc(OC(=O)CCCc3ccccc3)c(OC(=O)CCCc3ccccc3)c(OC(=O)CCCc3ccccc3)c1)[C@H](OC(=O)c1cc(OC(=O)CCCc3ccccc3)c(OC(=O)CCCc3ccccc3)c(OC(=O)CCCc3ccccc3)c1)C2 [Compound 5, [(2R,3R)-5,7-bis(4-phenylbutanoyloxy)-2-[3,4,5-tris(4-phenylbutanoyloxy)phenyl]chroman-3-yl] 3,4,5-tris(4-phenylbutanoyloxy)benzoate]
Fasting blood glucose levels (time 0 from OGTT) (Male DIO mice; 0.6% in HFD): 107.3 ± 5.3 mg/dL | glucose AUC (0-120 min) (Male DIO mice; 0.6% in HFD): 29628.0 ± 1791.7 mg/dL/min | Fasting blood glucose levels (time 0 from OGTT) (Male DIO mice; 2% in HFD): 104.7 ± 4.3 mg/dL | glucose AUC (0-120 min) (Male DIO mice; 2% in HFD): 27648.8 ± 866.3 mg/dL/min | Fasting blood glucose levels (time 0 from OGTT) (Male DIO mice; 6% in HFD): 95.1 ± 4.4 mg/dL | glucose AUC (0-120 min) (Male DIO mice; 6% in HFD): 26049.0 ± 455.4 mg/dL/min

Semaglutide [reference compound]
% HbA1c (C57BL/6 DIO mice; 123.4 μg/kg SC 3 times weekly for 12 weeks, ctrl Saline): 7.90% | OGTT (C57BL/6 DIO mice; 123.4 μg/kg SC 3 times weekly, ctrl Saline): 18214

CCCC(=O)O [Butyric acid]
activity at 3000 µM (Mouse 3T3-L1 cells; 3 mM): 50 to 70% | activity at 3000 µM (Mouse myocyte; 3 mM): < 50%
